Data reported in PubChem BioAssay AID322 (DTP/NCI, 2004).
Where “and” joins values, the source holds several entries; their conditions need not be identical. Equal values may be shown once. Inconclusive results and toxic doses are left out.

System: CD2F1 mice, P388/ADR leukemia ip, median survival T/C
Assay: NCI In Vivo Anticancer Drug Screen. Data for tumor model P388 Leukemia resistant to Adriamycin; NSC 123127, Developed at Scr 08 (intraperitoneal) in CD2F1 (CDF1) mice
Conditions: endpoint: median survival time, higher = longer survival
Description: The antitumor activity of compounds was measured in mice bearing transplantable tumors. Survival or tumor size were measured and the results are expressed as the measurement made in the treated group (T) divided by the measurement made in the vehicle treated control group (C). The tumor model used in this assay is P388 Leukemia resistant to Adriamycin; NSC 123127, Developed at Scr 08 (intraperitoneal) in CD2F1 (CDF1) mice

[1] = dose: 3.12 mg/kg/injection, schedule: Q01DX005 (ip), vehicle: saline
[2] = dose: 25.0 mg/kg/injection, schedule: Q01DX005 (ip), vehicle: saline
[3] = dose: 25.0 mg/kg/injection, schedule: Q01DX005 (ip), vehicle: suspension in saline

CNC(=O)OCc1nc(SC)n(C)c1COC(=O)NC
T/C (dose: 30.0 mg/kg/injection, schedule: Q01DX005 (ip), vehicle: saline): 155 % of control
T/C (dose: 40.0 mg/kg/injection, schedule: Q01DX005 (ip), vehicle: saline): 154 % of control
T/C (dose: 50.0 mg/kg/injection, schedule: Q01DX005 (ip), vehicle: saline): 158 % of control
T/C (dose: 51.0 mg/kg/injection, schedule: Q01DX005 (ip), vehicle: saline): 163 % of control
T/C (dose: 65.0 mg/kg/injection, schedule: Q01DX005 (ip), vehicle: saline): 155 % of control
T/C (dose: 77.0 mg/kg/injection, schedule: Q01DX005 (ip), vehicle: saline): 91 % of control

COc1cc(NS(C)(=O)=O)ccc1Nc1c2ccccc2nc2ccccc12
T/C (dose: 1.25 mg/kg/injection, schedule: Q04DX003 (ip), vehicle: other): 102 % of control
T/C (dose: 2.5 mg/kg/injection, schedule: Q04DX003 (ip), vehicle: other): 109 % of control
T/C (dose: 2.59 mg/kg/injection, schedule: Q04DX003 (ip), vehicle: other): 107 % of control
T/C (dose: 4.32 mg/kg/injection, schedule: Q04DX003 (ip), vehicle: other): 107 % of control
T/C (dose: 5.0 mg/kg/injection, schedule: Q04DX003 (ip), vehicle: other): 109 % of control
T/C (dose: 7.2 mg/kg/injection, schedule: Q04DX003 (ip), vehicle: other): 104 % of control
T/C (dose: 10.0 mg/kg/injection, schedule: Q04DX003 (ip), vehicle: other): 109 % of control
T/C (dose: 12.0 mg/kg/injection, schedule: Q04DX003 (ip), vehicle: other): 106 % of control
T/C (dose: 20.0 mg/kg/injection, schedule: Q04DX003 (ip), vehicle: other): 105 % of control and 113 % of control

CC[C@]1(O)C[C@H]2CN(CCc3c([nH]c4ccccc34)[C@@](C(=O)OC)(c3cc4c(cc3OC)N(C=O)[C@H]3[C@@](O)(C(=O)OC)[C@H](OC(C)=O)[C@]5(CC)C=CCN6CC[C@]43[C@@H]65)C2)C1
T/C (dose: 0.43 mg/kg/injection, schedule: Q04DX002 (ip), vehicle: saline): 109 % of control
T/C (dose: 0.72 mg/kg/injection, schedule: Q04DX002 (ip), vehicle: saline): 111 % of control
T/C (dose: 1.2 mg/kg/injection, schedule: Q04DX002 (ip), vehicle: saline): 109 % of control
T/C (dose: 2.0 mg/kg/injection, schedule: Q04DX002 (ip), vehicle: saline): 103 % of control
T/C (dose: 3.33 mg/kg/injection, schedule: Q04DX002 (ip), vehicle: saline): 115 % of control

Cc1cc(O)c2c(c1O)C(=O)C13C(=C2O)C(=O)C2C(O)C1C1C(O)C3C(=O)C3=C(O)c4c(O)cc(C)c(O)c4C(=O)C321 (stereo not drawn)
T/C (dose: 0.75 mg/kg/injection, schedule: Q01DX005 (ip), vehicle: saline with Tween-80): 101 % of control
T/C (dose: 1.5 mg/kg/injection, schedule: Q01DX005 (ip), vehicle: saline with Tween-80): 117 % of control
T/C (dose: 3.0 mg/kg/injection, schedule: Q01DX005 (ip), vehicle: saline with Tween-80): 122 % of control
T/C (dose: 6.0 mg/kg/injection, schedule: Q01DX005 (ip), vehicle: saline with Tween-80): 123 % of control

COc1ccc(CCN(C)CCCC(C#N)(c2ccc(OC)c(OC)c2)C(C)C)cc1OC (stereo not drawn)
T/C (dose: 8.0 mg/kg/injection, schedule: Q03HX006 (ip), vehicle: saline): 110 % of control
T/C (dose: 16.0 mg/kg/injection, schedule: Q03HX006 (ip), vehicle: saline): 104 % of control
T/C (dose: 32.0 mg/kg/injection, schedule: Q03HX006 (ip), vehicle: saline): 103 % of control

CO[C@@]12[C@H](COC(N)=O)C3=C(C(=O)C(C)=C(N)C3=O)N1C[C@@H]1N[C@@H]12
T/C (dose: 0.5 mg/kg/injection, schedule: Q01DX009 (ip), vehicle: saline with Tween-80): 178 % of control
T/C (dose: 1.0 mg/kg/injection, schedule: Q01DX009 (ip), vehicle: saline with Tween-80): 198 % of control and 207 % of control
T/C (dose: 2.0 mg/kg/injection, schedule: Q01DX009 (ip), vehicle: saline with Tween-80): 110 % of control and 117 % of control
T/C (dose: 3.6 mg/kg/injection, schedule: Q01DX001 (ip), vehicle: saline): 151 % of control
T/C (dose: 3.6 mg/kg/injection, schedule: Q01DX001 (ip), vehicle: water): 154 % of control
T/C (dose: 5.4 mg/kg/injection, schedule: Q01DX001 (ip), vehicle: saline): 177 % of control
T/C (dose: 5.4 mg/kg/injection, schedule: Q01DX001 (ip), vehicle: water): 162 % of control
T/C (dose: 12.0 mg/kg/injection, schedule: Q01DX001 (ip), vehicle: saline): 117 % of control
T/C (dose: 12.0 mg/kg/injection, schedule: Q01DX001 (ip), vehicle: water): 112 % of control

NCCCNCCCCNC(=O)C(O)NC(=O)CCCCCCN=C(N)N (stereo not drawn)
T/C (dose: 4.4 mg/kg/injection, schedule: Q01DX009 (ip), vehicle: other): 195 % of control
T/C (dose: 4.4 mg/kg/injection, schedule: Q01DX009 (ip), vehicle: saline): 193 % of control
T/C (dose: 6.7 mg/kg/injection, schedule: Q01DX009 (ip), vehicle: other): 195 % of control
T/C (dose: 6.7 mg/kg/injection, schedule: Q01DX009 (ip), vehicle: saline): 198 % of control
T/C (dose: 10.0 mg/kg/injection, schedule: Q01DX009 (ip), vehicle: other): 205 % of control
T/C (dose: 10.0 mg/kg/injection, schedule: Q01DX009 (ip), vehicle: saline): 206 % of control
T/C (dose: 15.0 mg/kg/injection, schedule: Q01DX009 (ip), vehicle: other): 209 % of control
T/C (dose: 15.0 mg/kg/injection, schedule: Q01DX009 (ip), vehicle: saline): 212 % of control
T/C (dose: 22.5 mg/kg/injection, schedule: Q01DX009 (ip), vehicle: other): 162 % of control
T/C (dose: 22.5 mg/kg/injection, schedule: Q01DX009 (ip), vehicle: saline): 219 % of control

O=NN(CCCl)C(=O)NCCCl
T/C (dose: 5.0 mg/kg/injection, schedule: Q01DX001 (ip), vehicle: saline + alcohol): 108 % of control and 123 % of control
T/C (dose: 20.0 mg/kg/injection, schedule: Q01DX001 (ip), vehicle: saline + alcohol): 150 % of control and 195 % of control
T/C (dose: 40.0 mg/kg/injection, schedule: Q01DX001 (ip), vehicle: saline + alcohol): 270 % of control and 309 % of control
T/C (dose: 80.0 mg/kg/injection, schedule: Q01DX001 (ip), vehicle: saline + alcohol): 90 % of control

OC(CBr)C(O)C(O)C(O)CBr (stereo not drawn)
T/C (dose: 30.0 mg/kg/injection, schedule: Q01DX009 (ip), vehicle: Klucel (hydroxypropylcellulose) (HPC)): 162 % of control

COc1cccc2c1C(CO)N1C(C#N)C3CC(C(=O)O)C(C1C2)N3C (stereo not drawn)
T/C (dose: 0.78 mg/kg/injection, schedule: Q01DX005 (ip), vehicle: suspension in saline): 186 % of control
T/C (dose: 1.57 mg/kg/injection, schedule: Q01DX005 (ip), vehicle: suspension in saline): 280 % of control
T/C [1]: 200 % of control
T/C (dose: 3.13 mg/kg/injection, schedule: Q01DX005 (ip), vehicle: suspension in saline): 224 % of control
T/C (dose: 6.25 mg/kg/injection, schedule: Q01DX005 (ip), vehicle: saline): 248 % of control
T/C (dose: 6.25 mg/kg/injection, schedule: Q01DX005 (ip), vehicle: suspension in saline): 271 % of control
T/C (dose: 12.5 mg/kg/injection, schedule: Q01DX005 (ip), vehicle: saline): 266 % of control
T/C (dose: 12.5 mg/kg/injection, schedule: Q01DX005 (ip), vehicle: suspension in saline): 214 % of control
T/C [2]: 272 % of control
T/C [3]: 252 % of control

COc1cc(C)c(C2NC(=O)c3ccccc3N2)cc1C (stereo not drawn)
T/C (dose: 50.0 mg/kg/injection, schedule: Q01DX005 (ip), vehicle: Klucel (hydroxypropylcellulose) (HPC)): 109 % of control
T/C (dose: 100.0 mg/kg/injection, schedule: Q01DX005 (ip), vehicle: Klucel (hydroxypropylcellulose) (HPC)): 116 % of control
T/C (dose: 200.0 mg/kg/injection, schedule: Q01DX005 (ip), vehicle: Klucel (hydroxypropylcellulose) (HPC)): 113 % of control
T/C (dose: 288.0 mg/kg/injection, schedule: Q01DX005 (ip), vehicle: Klucel (hydroxypropylcellulose) (HPC)): 158 % of control
T/C (dose: 400.0 mg/kg/injection, schedule: Q01DX005 (ip), vehicle: Klucel (hydroxypropylcellulose) (HPC)): 124 % of control
T/C (dose: 480.0 mg/kg/injection, schedule: Q01DX005 (ip), vehicle: Klucel (hydroxypropylcellulose) (HPC)): 153 % of control
T/C (dose: 800.0 mg/kg/injection, schedule: Q01DX005 (ip), vehicle: Klucel (hydroxypropylcellulose) (HPC)): 155 % of control and 206 % of control
T/C (dose: 1333.0 mg/kg/injection, schedule: Q01DX005 (ip), vehicle: Klucel (hydroxypropylcellulose) (HPC)): 207 % of control

O=C(O)c1cc(C(=O)O)c(C(=O)O)cc1C(=O)O.[NH2-].[NH2-].[NH2-].[NH2-].[Pt+2].[Pt+2]
T/C [1]: 123 % of control
T/C [2]: 167 % of control
T/C [3]: 150 % of control
T/C (dose: 41.67 mg/kg/injection, schedule: Q01DX005 (ip), vehicle: suspension in saline): 178 % of control
